These compounds were tested on Hartley-type male guinea pigs (assay: Guinea Pig Homogeneous Skin Passive Anaphylaxis Assay (PCA reaction)). Conditions: 10 mg/kg oral, 48 h after sensitization.
Format: in vivo, guinea pig (Hartley-type)
Procedure, shortened: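 Male Hartley guinea pigs (250~300 g) given intradermal back injections of 120-fold-diluted anti-OVA serum; 48 h later test substance dosed orally at 10 mg/kg, then challenged i.v. with OVA plus Evans Blue. Dye-spot area (long × short diameter, mm^2) measured at 30 min; inhibition % calculated against solvent control.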

`CCCCOc1c(O)c2c(OC)cccc2oc1=O` [Compound 225, 3-(butoxy)-4-hydroxy-5-(methoxy)-2H-1-benzopyran-2-one] was tested, and the “Allergic reaction inhibitory index (%)” value was 35%.

Same assay, conditions: Cavia porcellus, 10 mg/kg oral, 48 h after sensitization, read-out: Allergic reaction inhibitory index (%)

Going from `CCCCCCCCCCOc1ccc2c(OC/C=C(\C)CCC=C(C)C)c(OC/C=C(\C)CCC=C(C)C)c(=O)oc2c1` [Compound 73, 3-4-(digeranyloxy)-7-(decyloxy)-2H-1-benzopyran-2-one] to `CCCCCCCCCCOc1ccc2c(OC(C)=O)c(OC/C=C(\C)CCC=C(C)C)c(=O)oc2c1` [Compound 69, 3-(geranyloxy)-4-(acetoxy)-7-(decyloxy)-2H-1-benzopyran-2-one], the inhibition in vivo at 10 mg/kg rises from 30% to 33%.

Going from `COc1ccc2c(OC(C)C)c(OC(C)=O)c(=O)oc2c1` [Compound 32, 3-(acetoxy)-4-(isopropoxy)-7-(methoxy)-2H-1-benzopyran-2-one] to `CC(=O)Oc1c(O)c(=O)oc2cc(OC(C)C)ccc12` [Compound 46, 3-hydroxy-4-(acetoxy)-7-(isopropoxy)-2H-1-benzopyran-2-one], the inhibition in vivo at 10 mg/kg rises from 33% to 34%.

Going from `CC(C)=CCC/C(C)=C/COc1cccc2c(O)c(O)c(=O)oc12` [Compound 159, 3,4-(hydroxy)-8-(geranyloxy)-2H-1-benzopyran-2-one] to `CC(=O)Oc1c(O)c(=O)oc2c(OC/C=C(\C)CCC=C(C)C)cccc12` [Compound 160, 3-hydroxy-4-(acetoxy)-8-(geranyloxy)-2H-1-benzopyran-2-one], the inhibition in vivo at 10 mg/kg falls from 36% to 34%.

Compared with `CCCCCCCCCCOc1ccc2c(O)c(O)c(=O)oc2c1` [Compound 59, 3,4-(dihydroxy)-7-(decyloxy)-2H-1-benzopyran-2-one], `CCCCCCCCCCOc1cccc2c(O)c(O)c(=O)oc12` [Compound 144, 3,4-(dihydroxy)-8-(decyloxy)-2H-1-benzopyran-2-one] is lower in inhibition in vivo at 10 mg/kg: 47% for the first, 34% for the second.

Going from `CC(C)Oc1cccc2c(O)c(OC(=O)c3ccccc3)c(=O)oc12` [Compound 129, 3-(benzoyloxy)-4-hydroxy-8-(isopropoxy)-2H-1-benzopyran-2-one] to `CCCCCCCCCCOc1cccc2c(O)c(OC(=O)c3ccccc3)c(=O)oc12` [Compound 143, 3-(benzoyloxy)-4-hydroxy-8-(decyloxy)-2H-1-benzopyran-2-one], the inhibition in vivo at 10 mg/kg falls from 36% to 30%.

Compared with `CC(C)=CCC/C(C)=C/COc1c(OC/C=C(\C)CCC=C(C)C)c2cccc(OC(C)C)c2oc1=O` [Compound 142, 3,4-(digeranyloxy)-8-(isopropoxy)-2H-1-benzopyran-2-one], `CC(C)=CCC/C(C)=C/COc1cccc2oc(=O)c(OC(C)C)c(OC/C=C(\C)CCC=C(C)C)c12` [Compound 258, 3-(isopropoxy)-4,5-(digeranyloxy)-2H-1-benzopyran-2-one] is higher in inhibition in vivo at 10 mg/kg: 31% for the first, 32% for the second.

First: CC(C)=CCC/C(C)=C/COc1ccc2c(OC/C=C(\C)CCC=C(C)C)c(OC(C)C)c(=O)oc2c1 [Compound 88, 3-(isopropoxy)-4,7-(digeranyloxy)-2H-1-benzopyran-2-one]
Second: COc1cccc2oc(=O)c(OC/C=C(\C)CCC=C(C)C)c(OC/C=C(\C)CCC=C(C)C)c12 [Compound 209, 3,4-(digeranyloxy)-5-(methoxy)-2H-1-benzopyran-2-one]
The inhibition in vivo at 10 mg/kg of the first is lower: 30% for the first, 33% for the second.

Going from `COc1c(OC(C)=O)c2cccc(OC/C=C(\C)CCC=C(C)C)c2oc1=O` [Compound 166, 3-(methoxy)-4-(acetoxy)-8-(geranyloxy)-2H-1-benzopyran-2-one] to `COc1cccc2c(O)c(OC/C=C(\C)CCC=C(C)C)c(=O)oc12` [Compound 120, 3-(geranyloxy)-4-hydroxy-8-(methoxy)-2H-1-benzopyran-2-one], the inhibition in vivo at 10 mg/kg rises from 30% to 33%.

Compared with `COc1cccc2oc(=O)c(OC(C)=O)c(OC)c12` [Compound 201, 3-(acetoxy)-4,5-(dimethoxy)-2H-1-benzopyran-2-one], `COc1cccc2oc(=O)c(OC(C)C)c(O)c12` [Compound 198, 3-(isopropoxy)-4-hydroxy-5-(methoxy)-2H-1-benzopyran-2-one] is higher in inhibition in vivo at 10 mg/kg: 31% for the first, 40% for the second.

Compared with `CCCCCCCCCCOc1cccc2c(OCCCC)c(O)c(=O)oc12` [Compound 148, 3-hydroxy-4-(butoxy)-8-(decyloxy)-2H-1-benzopyran-2-one], `CCCCCCCCCCOc1cccc2c(OC(=O)c3ccccc3)c(OC(C)=O)c(=O)oc12` [Compound 146, 3-(acetoxy)-4-(benzoyloxy)-8-(decyloxy)-2H-1-benzopyran-2-one] is lower in inhibition in vivo at 10 mg/kg: 31% for the first, 30% for the second.

Going from `CC(C)=CCC/C(C)=C/COc1c(O)c(=O)oc2cc(OC(C)C)ccc12` [Compound 54, 3-hydroxy-4-(geranyloxy)-7-(isopropoxy)-2H-1-benzopyran-2-one] to `CC(C)=CCC/C(C)=C/COc1c(OC(C)C)c2ccc(OC(C)C)cc2oc1=O` [Compound 55, 3-(geranyloxy)-4,7-(diisopropoxy)-2H-1-benzopyran-2-one], the inhibition in vivo at 10 mg/kg rises from 32% to 33%.

Going from `CC(C)=CCC/C(C)=C/COc1c(O)c(=O)oc2c(O)cccc12` [Compound 103, 3,8-(dihydroxy)-4-(geranyloxy)-2H-1-benzopyran-2-one] to `CC(C)=CCC/C(C)=C/COc1cccc2oc(=O)c(O)c(OC(C)C)c12` [Compound 249, 3-hydroxy-4-(isopropoxy)-5-(geranyloxy)-2H-1-benzopyran-2-one], the inhibition in vivo at 10 mg/kg rises from 30% to 32%.

`CCCCCCCCCCOc1c(OC(=O)c2ccccc2)c2c(OC)cccc2oc1=O` [Compound 202, 3-(decyloxy)-4-(benzoyloxy)-5-(methoxy)-2H-1-benzopyran-2-one] and `CCCCCCCCCCOc1c(OC(C)=O)c(=O)oc2cccc(OC(C)C)c12` [Compound 217, 3-(acetoxy)-4-(decyloxy)-5-(isopropoxy)-2H-1-benzopyran-2-one] are the same in inhibition in vivo at 10 mg/kg: 30% for the first, 30% for the second.

Going from `COc1cccc2c(OC(C)C)c(OC/C=C(\C)CCC=C(C)C)c(=O)oc12` [Compound 124, 3-(geranyloxy)-4-(isopropoxy)-8-(methoxy)-2H-1-benzopyran-2-one] to `COc1ccc2c(O)c(OC/C=C(\C)CCC=C(C)C)c(=O)oc2c1` [Compound 37, 3-(geranyloxy)-4-hydroxy-7-(methoxy)-2H-1-benzopyran-2-one], the inhibition in vivo at 10 mg/kg rises from 33% to 40%.

First: CC(=O)Oc1c(O)c(=O)oc2cccc(O)c12 [Compound 178, 3,5-(dihydroxy)-4-(acetoxy)-2H-1-benzopyran-2-one]
Second: O=c1oc2c(O)cccc2c(O)c1O [Compound 93, 3,4,8-trihydroxy-2H-1-benzopyran-2-one]
The inhibition in vivo at 10 mg/kg of the first is lower: 30% for the first, 42% for the second.

Compared with `CC(C)=CCC/C(C)=C/COc1c(O)c2c(OC/C=C(\C)CCC=C(C)C)cccc2oc1=O` [Compound 253, 3,5-(digeranyloxy)-4-hydroxy-2H-1-benzopyran-2-one], `COc1c(OC/C=C(\C)CCC=C(C)C)c(=O)oc2cccc(OC/C=C(\C)CCC=C(C)C)c12` [Compound 257, 3,5-(digeranyloxy)-4-(methoxy)-2H-1-benzopyran-2-one] is lower in inhibition in vivo at 10 mg/kg: 33% for the first, 31% for the second.

Work on `COc1c(O)c2cccc(OC)c2oc1=O` [Compound 115, 3,8-(dimethoxy)-4-hydroxy-2H-1-benzopyran-2-one] yielded an inhibition in vivo at 10 mg/kg of 33%.

Reference: patent publication US5428059A, “Benzopyran derivatives and an anti-allergic agent possessing the same as the active ingredient” (Dainippon Ink & Chemicals, Inc., priority 1991, dated 1995)
